Source: US20210085640A1, “ACYLATED CATECHIN POLYPHENOLS AND METHODS OF THEIR USE FOR THE TREATMENT OF CANCER” (Flagship Pioneering Innovations V, Inc., priority 2018, published 2021)

Experiments:
Type in all cases: cell-based
[1] = tested on: PC-3 prostate cancer cells; assay: Cancer cell survival (CellTiter-Glo), PC-3; settings: Homo sapiens, PC-3 cells, 72 h
How it was run: (§1)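 Following overnight plating of 4×10^3 cells per well, triplicate wells received compound at nine concentrations (10× dosing stocks: fatty acids 1 μM-10 mM, all others 100 nM-1 mM). Incubation lasted 72 h at 37 C under 5% CO2. CellTiter-Glo luminescence then gave percent survival and IC50.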

[2] = tested on: Daudi lymphoma cancer cells; assay: Cancer cell survival (CellTiter-Glo), Daudi; settings: Homo sapiens, 72 h
How it was run: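 Daudi cells (4×10^3/well) were exposed for 72 h at 37 °C to nine concentrations of compound, added as 10× solutions spanning 1 μM–10 mM (fatty acids) or 100 nM–1 mM (others). CellTiter-Glo luminescence gave % survival versus untreated, medium-blank corrected; IC50 derived.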

[3] = tested on: HCT 116 colorectal cancer cells; assay: Cancer cell survival (CellTiter-Glo), HCT 116; settings: Homo sapiens, HCT 116 cells, 72 h
How it was run: as §1

A-431 skin cancer cells = assay: Cancer cell survival (CellTiter-Glo), A-431; settings: Homo sapiens, A-431 cells, 72 h
How it was run: as §1

MCF7 breast cancer cells = assay: Cancer cell survival (CellTiter-Glo), MCF7; settings: Homo sapiens, 72 h
How it was run: as §1

AGS stomach cancer cells = assay: Cancer cell survival (CellTiter-Glo), AGS; settings: 72 h
How it was run: as §1

T24 bladder cancer cells = assay: Cancer cell survival (CellTiter-Glo), T24; settings: Homo sapiens
How it was run: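 Viability by CellTiter-Glo after 72 h compound treatment of T24 bladder cancer cells (4×10^3/well, plated the night before), nine concentration levels in triplicate. Percent survival normalised to untreated cells minus medium background, from which IC50 was determined.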

A549 lung cancer cells = assay: Cancer cell survival (CellTiter-Glo), A549; settings: Homo sapiens, 72 h
How it was run: as §1

[4] = 317 μM, read-out: Cell survival at given concentration
[5] = 1 mM, read-out: Cell survival at given concentration
[6] = 3 mM, read-out: Cell survival at given concentration
[7] = 10 mM, read-out: Cell survival at given concentration

SMILES: CCC(=O)O [propionate]
- viability at 1 µM ([1]; 1 μM, Table 8.2, read-out: Cell survival at given concentration): 100%
- viability at 3 µM ([1]; 3 μM, Table 8.2, read-out: Cell survival at given concentration): 98%
- viability at 10 µM ([1]; 10 μM, Table 8.2, read-out: Cell survival at given concentration): 98%
- viability at 32 µM ([1]; 32 μM, Table 8.2, read-out: Cell survival at given concentration): 101%
- viability at 100 µM ([1]; 100 μM, Table 8.2, read-out: Cell survival at given concentration): 104%
- viability at 317 µM [1, 4]: 98%
- viability at 1000 µM [1, 5]: 94%
- viability at 3000 µM [1, 6]: 84%
- viability at 10000 µM [1, 7]: 66%
- IC50 ([1]; Table 8.2): > 10 mM
- viability at 1 µM ([2]; 1 μM, Table 4.2, read-out: Cell survival at given concentration): 97%
- viability at 3 µM ([2]; 3 μM, Table 4.2, read-out: Cell survival at given concentration): 97%
- viability at 10 µM ([2]; 10 μM, Table 4.2, read-out: Cell survival at given concentration): 99%
- viability at 32 µM ([2]; 32 μM, Table 4.2, read-out: Cell survival at given concentration): 99%
- viability at 100 µM ([2]; 100 μM, Table 4.2, read-out: Cell survival at given concentration): 101%
- viability at 317 µM [2, 4]: 97%
- viability at 1000 µM [2, 5]: 75%
- viability at 3000 µM [2, 6]: 47%
- viability at 10000 µM [2, 7]: 18%
- IC50 ([2]; Table 4.2): 2.73 mM
- viability at 1 µM ([3]; 1 μM, Table 6.2, read-out: Cell survival at given concentration): 98%
- viability at 3 µM ([3]; 3 μM, Table 6.2, read-out: Cell survival at given concentration): 102%
- viability at 10 µM ([3]; 10 μM, Table 6.2, read-out: Cell survival at given concentration): 103%
- viability at 32 µM ([3]; 32 μM, Table 6.2, read-out: Cell survival at given concentration): 103%
- viability at 100 µM ([3]; 100 μM, Table 6.2, read-out: Cell survival at given concentration): 106%
- viability at 317 µM [3, 4]: 103%
- viability at 1000 µM [3, 5]: 98%
- viability at 3000 µM [3, 6]: 66%
- viability at 10000 µM [3, 7]: 19%
- IC50 ([3]; Table 6.2): 4.38 mM
- viability at 1 µM (A-431 skin cancer cells; 1 μM, Table 9.2, read-out: Cell survival at given concentration): 99%
- viability at 3 µM (A-431 skin cancer cells; 3 μM, Table 9.2, read-out: Cell survival at given concentration): 101%
- viability at 10 µM (A-431 skin cancer cells; 10 μM, Table 9.2, read-out: Cell survival at given concentration): 103%
- viability at 32 µM (A-431 skin cancer cells; 32 μM, Table 9.2, read-out: Cell survival at given concentration): 102%
- viability at 100 µM (A-431 skin cancer cells; 100 μM, Table 9.2, read-out: Cell survival at given concentration): 104%
- viability at 317 µM (A-431 skin cancer cells; [4]): 99%
- viability at 1000 µM (A-431 skin cancer cells; [5]): 98%
- viability at 3000 µM (A-431 skin cancer cells; [6]): 89%
- viability at 10000 µM (A-431 skin cancer cells; [7]): 70%
- IC50 (A-431 skin cancer cells; Table 9.2): > 10 mM
- viability at 1 µM (MCF7 breast cancer cells; 1 μM, Table 5.2, read-out: Cell survival at given concentration): 99%
- viability at 3 µM (MCF7 breast cancer cells; 3 μM, Table 5.2, read-out: Cell survival at given concentration): 97%
- viability at 10 µM (MCF7 breast cancer cells; 10 μM, Table 5.2, read-out: Cell survival at given concentration): 103%
- viability at 32 µM (MCF7 breast cancer cells; 32 μM, Table 5.2, read-out: Cell survival at given concentration): 102%
- viability at 100 µM (MCF7 breast cancer cells; 100 μM, Table 5.2, read-out: Cell survival at given concentration): 102%
- viability at 317 µM (MCF7 breast cancer cells; [4]): 94%
- viability at 1000 µM (MCF7 breast cancer cells; [5]): 91%
- viability at 3000 µM (MCF7 breast cancer cells; [6]): 77%
- viability at 10000 µM (MCF7 breast cancer cells; [7]): 51%
- IC50 (MCF7 breast cancer cells; Table 5.2): > 10 mM
- viability at 1 µM (AGS stomach cancer cells; 1 μM, Table 10.2, read-out: Cell survival at given concentration): 102%
- viability at 3 µM (AGS stomach cancer cells; 3 μM, Table 10.2, read-out: Cell survival at given concentration): 98%
- viability at 10 µM (AGS stomach cancer cells; 10 μM, Table 10.2, read-out: Cell survival at given concentration): 103%
- viability at 32 µM (AGS stomach cancer cells; 32 μM, Table 10.2, read-out: Cell survival at given concentration): 101%
- viability at 100 µM (AGS stomach cancer cells; 100 μM, Table 10.2, read-out: Cell survival at given concentration): 104%
- viability at 317 µM (AGS stomach cancer cells; [4]): 101%
- viability at 1000 µM (AGS stomach cancer cells; [5]): 103%
- viability at 3000 µM (AGS stomach cancer cells; [6]): 96%
- viability at 10000 µM (AGS stomach cancer cells; [7]): 70%
- viability at 1 µM (T24 bladder cancer cells; T-24, 1 μM, 72 h, Table 3.2, read-out: Cell survival at given concentration): 99%
- viability at 3 µM (T24 bladder cancer cells; T-24, 3 μM, 72 h, Table 3.2, read-out: Cell survival at given concentration): 97%
- viability at 10 µM (T24 bladder cancer cells; T-24, 10 μM, 72 h, Table 3.2, read-out: Cell survival at given concentration): 97%
- viability at 32 µM (T24 bladder cancer cells; T-24, 32 μM, 72 h, Table 3.2, read-out: Cell survival at given concentration): 99%
- viability at 100 µM (T24 bladder cancer cells; T-24, 100 μM, 72 h, Table 3.2, read-out: Cell survival at given concentration): 97%
- viability at 317 µM (T24 bladder cancer cells; T-24, 317 μM, 72 h, read-out: Cell survival at given concentration): 98%
- viability at 1000 µM (T24 bladder cancer cells; T-24, 1 mM, 72 h, read-out: Cell survival at given concentration): 89%
- viability at 3000 µM (T24 bladder cancer cells; T-24, 3 mM, 72 h, read-out: Cell survival at given concentration): 83%
- viability at 10000 µM (T24 bladder cancer cells; T-24, 10 mM, 72 h, read-out: Cell survival at given concentration): 60%
- IC50 (T24 bladder cancer cells; T-24, 72 h, Table 3.2, read-out: IC50): > 10 mM
- viability at 1 µM (A549 lung cancer cells; 1 μM, Table 7.2, read-out: Cell survival at given concentration): 98%
- viability at 3 µM (A549 lung cancer cells; 3 μM, Table 7.2, read-out: Cell survival at given concentration): 98%
- viability at 10 µM (A549 lung cancer cells; 10 μM, Table 7.2, read-out: Cell survival at given concentration): 102%
- viability at 32 µM (A549 lung cancer cells; 32 μM, Table 7.2, read-out: Cell survival at given concentration): 103%
- viability at 100 µM (A549 lung cancer cells; 100 μM, Table 7.2, read-out: Cell survival at given concentration): 101%
- viability at 317 µM (A549 lung cancer cells; [4]): 104%
- viability at 1000 µM (A549 lung cancer cells; [5]): 104%
- viability at 3000 µM (A549 lung cancer cells; [6]): 94%
- viability at 10000 µM (A549 lung cancer cells; [7]): 65%
